Results from patent US20210045385A1, “PYRIDAZINONE-SUBSTITUTED KETOXIMES AS HERBICIDES” (FMC Corporation, priority 2018, published 2021).

Assays:
Assay type in all cases: in vivo
[1] = tested on: barnyardgrass (Echinochloa crus-galli); experiment: Test B flooded paddy test, visual plant response rating; details: 250 g ai/ha, Flood, applied to paddy water, 2-leaf stage, evaluated after 13 to 15 days
In short: (§1)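 2-leaf plants; pots flooded 3 cm over soil surface; compound dosed straight into the floodwater; depth kept constant; greenhouse 13–15 d; visual rating vs. untreated controls.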

rice (Oryza sativa) = experiment: as above; details: 250 g ai/ha, Flood, applied to paddy water, 2-leaf stage, evaluated after 13 to 15 days
In short: as §1

[2] = tested on: ducksalad (Heteranhera limosa); experiment: as above; details: 250 g ai/ha, Flood, applied to paddy water, 2-leaf stage, evaluated after 13 to 15 days
In short: as §1

[3] = tested on: sedge, umbrella (small-flower umbrella sedge, Cyperus difformis); experiment: as above; details: 250 g ai/ha, Flood, applied to paddy water, 2-leaf stage, evaluated after 13 to 15 days
In short: as §1

[4] = tested on: ragweed (common ragweed, Ambrosia elatior); experiment: Test A postemergence, visual plant response rating; details: for Ragweed plant response rating (0 to 100 scale): 500 g ai/ha, postemergence, 0 is no effect, 100 is complete control; for Ragweed plant response rating: Postemergence, 125 g ai/ha, 0 to 100 scale (0 no effect, 100 complete control)
In short: (§2)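 Ratings 0–100 (100 = complete control), visual, vs untreated controls at ~10 days. Application pre- or postemergence; solvent mixture with surfactant; loam/sand medium.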

[5] = tested on: pigweed (Amaranthus retroflexus); experiment: Test A postemergence, visual plant response rating; details: for Pigweed plant response rating (0 to 100 scale): 500 g ai/ha, postemergence, 0 is no effect, 100 is complete control; for Pigweed plant response rating: Postemergence, 125 g ai/ha, 0 to 100 scale (0 no effect, 100 complete control)
In short: as §2

[6] = tested on: Italian ryegrass (Lolium multiflorum); experiment: Test A postemergence, visual plant response rating
In short: as §2

corn (Zea mays) = experiment: Test A postemergence, visual plant response rating; details: for Corn plant response rating (0 to 100 scale): 500 g ai/ha, postemergence, 0 is no effect, 100 is complete control; for Corn plant response rating: Postemergence, 125 g ai/ha, 0 to 100 scale (0 no effect, 100 complete control)
In short: as §2

[7] = tested on: barnyardgrass (Echinochloa crus-galli); experiment: Test A postemergence, visual plant response rating; details: for Barnyardgrass plant response rating (0 to 100 scale): 500 g ai/ha, postemergence, 0 is no effect, 100 is complete control; for Barnyardgrass plant response rating: Postemergence, 125 g ai/ha, 0 to 100 scale (0 no effect, 100 complete control)
In short: as §2

[8] = tested on: wheat (Triticum aestivum); experiment: Test A postemergence, visual plant response rating; details: for Wheat plant response rating: 0 to 100 scale (0 no effect, 100 complete control)
In short: as §2

[9] = tested on: galium (catchweed bedstraw, Galium aparine); experiment: Test A postemergence, visual plant response rating; details: for Galium plant response rating (0 to 100 scale): 500 g ai/ha, postemergence, 0 is no effect, 100 is complete control; for Galium plant response rating: Postemergence, 125 g ai/ha, 0 to 100 scale (0 no effect, 100 complete control)
In short: as §2

[10] = tested on: blackgrass (Alopecurus myosuroides); experiment: Test A postemergence, visual plant response rating; details: for Blackgrass plant response rating (0 to 100 scale): 500 g ai/ha, postemergence, 0 is no effect, 100 is complete control; for Blackgrass plant response rating: Postemergence, 125 g ai/ha, 0 to 100 scale (0 no effect, 100 complete control)
In short: as §2

kochia (Kochia scoparia) [11] = experiment: Test A postemergence, visual plant response rating; details: for Kochia plant response rating (0 to 100 scale): 500 g ai/ha, postemergence, 0 is no effect, 100 is complete control; for Kochia plant response rating: Postemergence, 125 g ai/ha, 0 to 100 scale (0 no effect, 100 complete control)
In short: as §2

[12] = tested on: foxtail, giant (giant foxtail, Setaria faberii); experiment: Test A postemergence, visual plant response rating; details: for Foxtail, Giant plant response rating (0 to 100 scale): 500 g ai/ha, postemergence, 0 is no effect, 100 is complete control; for Foxtail, Giant plant response rating: Postemergence, 125 g ai/ha, 0 to 100 scale (0 no effect, 100 complete control)
In short: as §2

[13] = tested on: ragweed (common ragweed, Ambrosia elatior); experiment: Test A preemergence, visual plant response rating; details: for Ragweed plant response rating: 125 g ai/ha, preemergence, 0 to 100 scale, 0 no effect, 100 complete control; for Ragweed plant response rating (0 to 100 scale): 500 g ai/ha Preemergence, approx. 10 days
In short: as §2

[14] = tested on: pigweed (Amaranthus retroflexus); experiment: Test A preemergence, visual plant response rating; details: for Pigweed plant response rating: 125 g ai/ha, preemergence, 0 to 100 scale, 0 no effect, 100 complete control; for Pigweed plant response rating (0 to 100 scale): 500 g ai/ha Preemergence, approx. 10 days
In short: as §2

[15] = tested on: Italian ryegrass (Lolium multiflorum); experiment: Test A preemergence, visual plant response rating; details: for Ryegrass, Italian plant response rating: 125 g ai/ha, preemergence, 0 to 100 scale, 0 no effect, 100 complete control; for Ryegrass, Italian plant response rating (0 to 100 scale): 500 g ai/ha Preemergence, approx. 10 days
In short: as §2

[16] = tested on: barnyardgrass (Echinochloa crus-galli); experiment: Test A preemergence, visual plant response rating; details: for Barnyardgrass plant response rating: 125 g ai/ha, preemergence, 0 to 100 scale, 0 no effect, 100 complete control; for Barnyardgrass plant response rating (0 to 100 scale): 500 g ai/ha Preemergence, approx. 10 days
In short: as §2

kochia (Kochia scoparia) [17] = experiment: Test A preemergence, visual plant response rating; details: for Kochia plant response rating: 125 g ai/ha, preemergence, 0 to 100 scale, 0 no effect, 100 complete control; for Kochia plant response rating (0 to 100 scale): 500 g ai/ha Preemergence, approx. 10 days
In short: as §2

[18] = tested on: foxtail, giant (giant foxtail, Setaria faberii); experiment: Test A preemergence, visual plant response rating; details: for Foxtail, Giant plant response rating: 125 g ai/ha, preemergence, 0 to 100 scale, 0 no effect, 100 complete control; for Foxtail, Giant plant response rating (0 to 100 scale): 500 g ai/ha Preemergence, approx. 10 days
In short: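 Formulated in a non-phytotoxic solvent mixture including surfactant, each test chemical was sprayed onto the soil surface after sowing, or onto seedlings 2 to 10 cm high. Roughly 10 days later, plants were compared with untreated controls and rated for injury from 0 (no effect) to 100 (complete control).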

[19] = 500 g ai/ha, postemergence, 0 is no effect, 100 is complete control
[20] = Postemergence, rate not given, approx. 10 days

SMILES | Plant response rating, Barnyardgrass (0 to 100 scale, 0 is no effect, 100 is complete control) [1] | Plant response rating, Rice (0 to 100 scale, 0 is no effect, 100 is complete control) (rice (Oryza sativa)) | Plant response rating, Ducksalad (0 to 100 scale, 0 is no effect, 100 is complete control) [2] | Plant response rating, Sedge, Umbrella (0 to 100 scale, 0 is no effect, 100 is complete control) [3] | Ragweed plant response rating (0 to 100 scale) [4] | Ragweed plant response rating [4] | Pigweed plant response rating (0 to 100 scale) [5] | Pigweed plant response rating [5] | Ryegrass, Italian plant response rating (0 to 100 scale) [6, 19] | Corn plant response rating (0 to 100 scale) (corn (Zea mays)) | Corn plant response rating (corn (Zea mays)) | Barnyardgrass plant response rating (0 to 100 scale) [7] | Barnyardgrass plant response rating [7] | Galium plant response rating (0 to 100 scale) [9] | Galium plant response rating [9] | Blackgrass plant response rating (0 to 100 scale) [10] | Blackgrass plant response rating [10] | Kochia plant response rating (0 to 100 scale) (kochia (Kochia scoparia) [11]) | Kochia plant response rating (kochia (Kochia scoparia) [11]) | Foxtail, Giant plant response rating (0 to 100 scale) [12] | other results
CO/N=C(/c1ccsc1C)c1c(O)c(C)nn(C)c1=O [Compound 135] | 0 | 0 | 0 | 0 | 20 | 0 | 30 | 20 | 30 | 0 | 0 | 0 | 0 | 40 | 30 | 0 | 0 | 10 | 0 | 0 | Ryegrass, Italian plant response rating ([6]; Postemergence, 125 g ai/ha, 0 to 100 scale (0 no effect, 100 complete control)): 0; Wheat plant response rating (0 to 100 scale) [8, 19]: 0; Wheat plant response rating ([8]; Postemergence, 125 g ai/ha): 0; Foxtail, Giant plant response rating [12]: 0; Ragweed plant response rating [13]: 0; Ragweed plant response rating (0 to 100 scale) [13]: 10; Pigweed plant response rating [14]: 0; Pigweed plant response rating (0 to 100 scale) [14]: 20; Ryegrass, Italian plant response rating [15]: 0; Ryegrass, Italian plant response rating (0 to 100 scale) [15]: 0; Barnyardgrass plant response rating [16]: 0; Barnyardgrass plant response rating (0 to 100 scale) [16]: 0; Kochia plant response rating (kochia (Kochia scoparia) [17]): 0; Kochia plant response rating (0 to 100 scale) (kochia (Kochia scoparia) [17]): 10; Foxtail, Giant plant response rating [18]: 0; Foxtail, Giant plant response rating (0 to 100 scale) [18]: 0
CO/N=C(/c1cscc1C)c1c(O)c(C)nn(C)c1=O [Compound 140] | 0 | 0 | 0 | 0 | 70 | 50 | 90 | 80 | 60 | 20 | 10 | 20 | 0 | 70 | 70 | 0 | 0 | 60 | 20 | 30 | Ryegrass, Italian plant response rating (0 to 100 scale) [6, 20]: 10; Wheat plant response rating (0 to 100 scale) [8, 19]: 0; Wheat plant response rating (0 to 100 scale) ([8]; Postemergence, approx. 10 days): 0; Foxtail, Giant plant response rating [12]: 10; Ragweed plant response rating [13]: 10; Ragweed plant response rating (0 to 100 scale) [13]: 50; Pigweed plant response rating [14]: 0; Pigweed plant response rating (0 to 100 scale) [14]: 90; Ryegrass, Italian plant response rating [15]: 20; Ryegrass, Italian plant response rating (0 to 100 scale) [15]: 50; Barnyardgrass plant response rating [16]: 0; Barnyardgrass plant response rating (0 to 100 scale) [16]: 0; Kochia plant response rating (kochia (Kochia scoparia) [17]): 0; Kochia plant response rating (0 to 100 scale) (kochia (Kochia scoparia) [17]): 0; Foxtail, Giant plant response rating [18]: 0; Foxtail, Giant plant response rating (0 to 100 scale) [18]: 10
CON=C(c1ccc(C)o1)c1c(O)c(C)nn(C)c1=O [Compound 141] | 0 | 0 | 0 | 0 | 0 | 0 | 0 | 0 | 0 | 0 | 0 | 0 | 0 | 10 | 0 | 30 | 10 | 0 | 0 | 0 | Ryegrass, Italian plant response rating (0 to 100 scale) [6, 20]: 0; Wheat plant response rating ([8]; Postemergence, 500 g ai/ha): 0; Wheat plant response rating (0 to 100 scale) ([8]; Postemergence, approx. 10 days): 0; Foxtail, Giant plant response rating [12]: 0; Ragweed plant response rating [13]: 0; Ragweed plant response rating (0 to 100 scale) [13]: 0; Pigweed plant response rating [14]: 0; Pigweed plant response rating (0 to 100 scale) [14]: 0; Ryegrass, Italian plant response rating [15]: 0; Ryegrass, Italian plant response rating (0 to 100 scale) [15]: 20; Barnyardgrass plant response rating [16]: 0; Barnyardgrass plant response rating (0 to 100 scale) [16]: 0; Kochia plant response rating (kochia (Kochia scoparia) [17]): 0; Kochia plant response rating (0 to 100 scale) (kochia (Kochia scoparia) [17]): 0; Foxtail, Giant plant response rating [18]: 0; Foxtail, Giant plant response rating (0 to 100 scale) [18]: 0
CO/N=C(/c1c(O)c(C)nn(C)c1=O)c1ccc(OC)c2ccccc12 [Compound 142] | 0 | 0 | 0 | 0 | 30 | 0 | 10 | 10 | 70 | 30 | 0 | 10 | 10 | 70 | 50 | 80 | 30 | 30 | 0 | 30 | Ryegrass, Italian plant response rating (0 to 100 scale) [6, 20]: 0; Wheat plant response rating ([8]; Postemergence, 500 g ai/ha): 10; Wheat plant response rating (0 to 100 scale) ([8]; Postemergence, approx. 10 days): 0; Foxtail, Giant plant response rating [12]: 20; Ragweed plant response rating [13]: 0; Ragweed plant response rating (0 to 100 scale) [13]: 20; Pigweed plant response rating [14]: 0; Pigweed plant response rating (0 to 100 scale) [14]: 0; Ryegrass, Italian plant response rating [15]: 0; Ryegrass, Italian plant response rating (0 to 100 scale) [15]: 20; Barnyardgrass plant response rating [16]: 0; Barnyardgrass plant response rating (0 to 100 scale) [16]: 50; Kochia plant response rating (kochia (Kochia scoparia) [17]): 0; Kochia plant response rating (0 to 100 scale) (kochia (Kochia scoparia) [17]): 0; Foxtail, Giant plant response rating [18]: 10; Foxtail, Giant plant response rating (0 to 100 scale) [18]: 60
